Where a name gives a salt, the structure may show the parent alone. Blank lines part the entries; values can stand above or below the compound they belong to.
Assay: Measurement of critical degree of supersaturation of spherulite
Assay type: physicochemical
Source text: “Supersaturated solution” in the present description means a solution in a state of containing a solute exceeding the solubility. As the degree of supersaturation, “degree of supersaturation” can be used. Regarding the degree of supersaturation, when the concentration (mass concentration (g/g)) of a compound dissolved in a supersaturated solution is defined as C and the solubility of the compound is defined as Cs, the degree of supersaturation S can be represented by the following formula: […]
“Critical degree of supersaturation” in the present description means the lowest degree of supersaturation required to obtain a specifically-shaped crystal. […] The value of a critical degree of supersaturation varies depending on the shape of a crystal. For example, all of values of a critical degree of supersaturation required to obtain a plate crystal, a critical degree of supersaturation required to obtain a needle crystal, and a critical degree of supersaturation required to obtain a spherulite are different. The critical degree of supersaturation required to obtain a spherulite is higher than the critical degree of supersaturation required to obtain a plate crystal or a needle crystal.
The actual measured value of the critical degree of supersaturation (S*) can be measured as follows:
(1) 100 particles are observed by SEM. (2) 5 to 10 particles whose shape is close to a desired specific shape are selected, and the shape is evaluated. In particular, when the desired specific shape is a sphere, the sphericity is evaluated. (3) Based on the evaluation index of the shape, whether the selected particles have the desired specific shape or not is determined. In particular, when the desired specific shape is a sphere, the case where the sphericity is 0.60 or more is determined as a spherulite. (4) The above-mentioned operation is performed for each sample having a different degree of supersaturation during crystallization, and the minimum value of a degree of supersaturation having the specifically-shaped particles is determined as the critical degree of supersaturation. The difference between the maximum value of a degree of supersaturation not having the specifically-shaped particles and the critical degree of supersaturation should be 20% or less.
The critical degree of supersaturation of a spherulite of ketotifen fumarate was determined as follows. To 2.0 g of ketotifen fumarate, 10 mL (5 v/w) of methanol was added, followed by reflux to completely dissolve. This solution was added dropwise to 50 mL of isopropanol at 20° C. to prepare a supersaturated solution of ketotifen fumarate. The degree of supersaturation of the supersaturated solution at the end of dropwise addition was 9.0. The supersaturated solution was crystallized. The crystal was collected by filtration, followed by drying under reduced pressure at 40° C., thus obtaining a crystal of ketotifen fumarate.
Similarly, when a substrate and a solvent different from those mentioned above are used, a plurality of samples having a different degree of supersaturation are prepared and crystallized, and then the critical degree of supersaturation of the spherulite was measured.

Compound: CN(C)CC/C=C1/c2ccccc2COc2ccc(CC(=O)O)cc21 [Olopatadine]
actual measured value of the critical degree of supersaturation: 9.7
Critical degree of supersaturation S Experimental value (entry 58, solvent 1 MeOH, solvent 2 EtOAc, solvent 2/solvent 1 ratio 20, crystallization 15 °C): 9.7

Compound: Nc1nc(CC(=O)Nc2ccc(CCNC[C@H](O)c3ccccc3)cc2)cs1 [Mirabegron]
actual measured value of the critical degree of supersaturation: 5.6
Critical degree of supersaturation S Experimental value (entry 48, solvent 1 H2O, solvent 2 MeOH, solvent 2/solvent 1 ratio 1.25, crystallization 0 °C): 1.6
Critical degree of supersaturation S Experimental value (entry 49, solvent 1 H2O, solvent 2 MeOH, solvent 2/solvent 1 ratio 1.25, crystallization 10 °C): 3.2
Critical degree of supersaturation S Experimental value (entry 50, solvent 1 MeOH, solvent 2 TBME, solvent 2/solvent 1 ratio 10, crystallization 0 °C): 4
Critical degree of supersaturation S Experimental value (entry 51, solvent 1 MeOH, solvent 2 TBME, solvent 2/solvent 1 ratio 10, crystallization 10 °C): 4.3
Critical degree of supersaturation S Experimental value (entry 52, solvent 1 EtOH, solvent 2 TBME, solvent 2/solvent 1 ratio 10, crystallization 0 °C): 5.6
Critical degree of supersaturation S Experimental value (entry 53, solvent 1 EtOH, solvent 2 TBME, solvent 2/solvent 1 ratio 10, crystallization 10 °C): 5.4

Compound: Cn1c(=O)c2[nH]cnc2n(C)c1=O.[Mg] [Theophylline magnesium salt]
actual measured value of the critical degree of supersaturation: 3.5
Critical degree of supersaturation S Experimental value (entry 28, solvent 1 MeOH, solvent 2 H2O, solvent 2/solvent 1 ratio 3, crystallization 0 °C): 3.5
Critical degree of supersaturation S Experimental value (entry 29, solvent 1 EtOH, solvent 2 H2O, solvent 2/solvent 1 ratio 3, crystallization 0 °C): 3.9
Critical degree of supersaturation S Experimental value (entry 30, solvent 1 Acetone, solvent 2 H2O, solvent 2/solvent 1 ratio 3, crystallization 0 °C): 6.3
Critical degree of supersaturation S Experimental value (entry 31, solvent 1 IPA, solvent 2 H2O, solvent 2/solvent 1 ratio 3, crystallization 0 °C): 6.6

Compound: Cc1c(OCC(F)(F)F)ccnc1C[S+]([O-])c1nc2ccccc2[nH]1 (stereo not drawn) [Lansoprazole]
actual measured value of the critical degree of supersaturation: 10.9
Critical degree of supersaturation S Experimental value (entry 2, solvent 1 MeOH, solvent 2 H2O, solvent 2/solvent 1 ratio 3, crystallization 0 °C): 6.9
Critical degree of supersaturation S Experimental value (entry 20, solvent 1 MeOH, solvent 2 H2O, solvent 2/solvent 1 ratio 3, crystallization 15 °C): 12.6

Compound: N[C@@H](CCC(=O)N[C@@H](CS)C(=O)NCC(=O)O)C(=O)O [Glutathione]
actual measured value of the critical degree of supersaturation: 18.7
Critical degree of supersaturation S Experimental value (entry 47, solvent 1 H2O, solvent 2 EtOH, solvent 2/solvent 1 ratio 5, crystallization 20 °C): 18.7

Compound: COC(=O)[C@H](c1ccccc1Cl)N1CCc2sccc2C1 [Clopidogrel sulfate]
Critical degree of supersaturation S Experimental value (entry 3, solvent 1 H2O, solvent 2 2-BuOH, solvent 2/solvent 1 ratio 222, crystallization 20 °C): 9.7

Compound: Cc1cccc(C)c1NC(=O)CC12CCCN1CCC2.Cl [Pilsicainide hydrochloride anhydride]
actual measured value of the critical degree of supersaturation: 27
Critical degree of supersaturation S Experimental value (entry 35, solvent 1 IPA, solvent 2 Toluene, solvent 2/solvent 1 ratio 10, crystallization 5 °C): 27

Compound: CN(C)CCC[C@@]1(c2ccc(F)cc2)OCc2cc(C#N)ccc21 [Escitalopram oxalate]
actual measured value of the critical degree of supersaturation: 3.7
Critical degree of supersaturation S Experimental value (entry 21, solvent 1 H2O, solvent 2 2-BuOH, solvent 2/solvent 1 ratio 30, crystallization 0 °C): 2.8
Critical degree of supersaturation S Experimental value (entry 22, solvent 1 H2O, solvent 2 2-BuOH, solvent 2/solvent 1 ratio 15, crystallization 0 °C): 3.7
Critical degree of supersaturation S Experimental value (entry 23, solvent 1 H2O, solvent 2 IPA, solvent 2/solvent 1 ratio 15, crystallization 0 °C): 4

Compound: Cc1ccccc1C(=O)Nc1ccc(C(=O)N2CCCC(O)c3cc(Cl)ccc32)c(C)c1 (stereo not drawn) [Tolvaptan]
actual measured value of the critical degree of supersaturation: 4.8
Critical degree of supersaturation S Experimental value (entry 54, solvent 1 MeOH, solvent 2 H2O, solvent 2/solvent 1 ratio 0.4, crystallization 0 °C): 4.8
Critical degree of supersaturation S Experimental value (entry 55, solvent 1 MeOH, solvent 2 H2O, solvent 2/solvent 1 ratio 0.4, crystallization 10 °C): 7.1

Results, then the compound that gave them:

actual measured value of the critical degree of supersaturation: 9.2
Critical degree of supersaturation S Experimental value (entry 39, solvent 1 EtOH, solvent 2 TBME, solvent 2/solvent 1 ratio 10, crystallization 0 °C): 9.2
Critical degree of supersaturation S Experimental value (entry 40, solvent 1 EtOH, solvent 2 TBME, solvent 2/solvent 1 ratio 10, crystallization 10 °C): 7
Critical degree of supersaturation S Experimental value (entry 41, solvent 1 MEK, solvent 2 Toluene, solvent 2/solvent 1 ratio 10, crystallization 0 °C): 8.5
Critical degree of supersaturation S Experimental value (entry 42, solvent 1 IPA, solvent 2 TBME, solvent 2/solvent 1 ratio 10, crystallization 0 °C): 11
Critical degree of supersaturation S Experimental value (entry 43, solvent 1 IPA, solvent 2 TBME, solvent 2/solvent 1 ratio 10, crystallization 10 °C): 11.6
Critical degree of supersaturation S Experimental value (entry 44, solvent 1 IPA, solvent 2 TBME, solvent 2/solvent 1 ratio 10, crystallization 20 °C): 11.9
Compound: N#C[C@@H]1CCCN1C(=O)CNC12CC3CC(CC(O)(C3)C1)C2 [Vildagliptin]

Critical degree of supersaturation S Experimental value (entry 1, solvent 1 MeOH, solvent 2 H2O, solvent 2/solvent 1 ratio 1, crystallization 35 °C): 1.4
Compound: COc1ccc2[n-]c([S+]([O-])Cc3ncc(C)c(OC)c3C)nc2c1.COc1ccc2[n-]c([S+]([O-])Cc3ncc(C)c(OC)c3C)nc2c1.[Mg+2] (stereo not drawn) [Esomeprazolc magnesium hydrate]

actual measured value of the critical degree of supersaturation: 17
Critical degree of supersaturation S Experimental value (entry 8, solvent 1 THF, solvent 2 H2O, solvent 2/solvent 1 ratio 25, crystallization 0 °C): 11
Critical degree of supersaturation S Experimental value (entry 9, solvent 1 THF, solvent 2 H2O, solvent 2/solvent 1 ratio 70, crystallization 0 °C): 26
Critical degree of supersaturation S Experimental value (entry 10, solvent 1 THF, solvent 2 H2O, solvent 2/solvent 1 ratio 75, crystallization 10 °C): 17
Compound: CC[C@H]1OC(=O)[C@H](C)[C@@H](O[C@H]2C[C@@](C)(OC)[C@@H](O)[C@H](C)O2)[C@H](C)[C@@H](O[C@@H]2O[C@H](C)C[C@H](N(C)C)[C@H]2O)[C@](C)(OC)C[C@@H](C)C(=O)[C@H](C)[C@@H](O)[C@]1(C)O [Clarithromycin]

actual measured value of the critical degree of supersaturation: 7.9
Critical degree of supersaturation S Experimental value (entry 32, solvent 1 MeOH, solvent 2 1-BuOH, solvent 2/solvent 1 ratio 10, crystallization 0 °C): 5.2
Critical degree of supersaturation S Experimental value (entry 33, solvent 1 MeOH, solvent 2 1-BuOH, solvent 2/solvent 1 ratio 10, crystallization 20 °C): 7.9
Critical degree of supersaturation S Experimental value (entry 34, solvent 1 MeOH, solvent 2 1-BuOH, solvent 2/solvent 1 ratio 10, crystallization 40 °C): 12.6
Compound: Cc1cc(N2CCN([C@@H]3CN[C@H](C(=O)N4CCSC4)C3)CC2)n(-c2ccccc2)n1 [Teneligliptin hydrobromide hydrate]
